In patent publication US20230024528A1, “METHODS OF USE OF ANTI-TREM2 ANTIBODIES” (Alector LLC, priority 2019, published 2023):

System: human macrophages
Assay: Human macrophage cell viability and survival following CSF1R inhibition with PLX3397, CellTiter-Glo
Assay type: cell-based
Details: PLX3397 30 nM alone, complete RPMI media
Method: To evaluate the ability of an anti-TREM2 antibody to sustain survival of human macrophages after CSF1R inhibition, the ability of AL2p-58 huIgG1 PSEG to enhance cell-viability and survival in the presence of CSF1R inhibitor PLX3397 was tested (DeNardo et al., Cancer Discov (2011) 1(1):54-67. 22039576t; Peng, et al., J. of Exp Canc Res (2019) 38(1):372. PMID: 31438996). Similar to CSF1 withdrawal experiments, human derived macrophages were plated onto 96-well plates on Day 6 and treated with IgG1, PLX3397 (30 nM), AL2p-58 huIgG1 PSEG (10 μg/mL) or a combination of PLX3397 and AL2p-58 huIgG1 PSEG on Day 7, all in complete RPMI media. Cell viability was quantified using the CellTiter-Glo luminescent viability assay (Promega) on each subsequent day.

FC(F)(F)c1ccc(CNc2ccc(Cc3c[nH]c4ncc(Cl)cc34)cn2)cn1 [PLX3397, reference compound]
cell viability of human macrophages treated with CSF1R inhibitor alone: reduced cell viability
